{"source": "paper PMC3272276", "about": "(The Journal of Organic Chemistry, 2010)", "test_system": "Candida albicans", "experiment": "Antifungal activity", "format": "cell-based"}
{"substance": "mutremdamide A", "values": [{"measurement": "inhibition of growth of Candida albicans (in words)", "result": "None of the koshikamides or mutremdamide A inhibited the growth"}]}
{"substance": "theonellamide A", "values": [{"measurement": "inhibition of growth of Candida albicans (in words)", "result": "antifungal activity of the extracts was traced to the known peptide theonellamide A"}]}
